Tests used:
ΔF508-CFTR [1] = biological target: T1, ΔF508-CFTR (Homo sapiens, UniProt P13569, DEL508-508); assay: CFTR cell surface levels using HRP-tagged ΔF508-CFTR expressing CFBE cells, in the presence of a co-corrector; format: cell-based; settings: HRP-tagged ΔF508-CFTR expressing CFBE cells, in the presence of 3 μM co-corrector; for EC50: read-out: EC50
T1 construct: host or cells: CFBE41o-, doxycycline-inducible
Summary of the method: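 Cells were seeded with 0.5 μg/mL doxycycline and held 68 h at 37 °C. Test compounds plus 3 μM co-corrector (final 0.1% DMSO) were then added for 20 h at 33 °C. Washed cells received HRP substrate, and luminescence was normalized between DMSO and 3 μM co-corrector controls.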

ΔF508-CFTR [2] = biological target: T1, ΔF508-CFTR; assay: CFTR cell surface levels using HRP-tagged ΔF508-CFTR expressing CFBE cells, intrinsic corrector capacity; format: cell-based; settings: for EC50: read-out: EC50
Summary of the method: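 Here the cells express ΔF508-CFTR with horseradish peroxidase inserted in extracellular loop 4, so only rescued channel at the surface gives luminescent signal. Compounds act on their own, 20 h at the reduced temperature of 33 °C; values are percent activity relative to DMSO and a 3 μM corrector.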

[3] = HRP-tagged ΔF508-CFTR expressing CFBE cells, intrinsic corrector capacity (no co-corrector), 33° C., 20 hours
[4] = HRP-tagged ΔF508-CFTR CFBE41o- cells, compounds alone (intrinsic corrector capacity), 20 hours at 33° C., positive control 3 μM corrector
[5] = HRP-tagged ΔF508-CFTR CFBE41o- cells, compounds alone (intrinsic corrector capacity), 20 hours at 33° C.

T1 sequence (P13569 with tags, fused parts or gaps DEL508-508): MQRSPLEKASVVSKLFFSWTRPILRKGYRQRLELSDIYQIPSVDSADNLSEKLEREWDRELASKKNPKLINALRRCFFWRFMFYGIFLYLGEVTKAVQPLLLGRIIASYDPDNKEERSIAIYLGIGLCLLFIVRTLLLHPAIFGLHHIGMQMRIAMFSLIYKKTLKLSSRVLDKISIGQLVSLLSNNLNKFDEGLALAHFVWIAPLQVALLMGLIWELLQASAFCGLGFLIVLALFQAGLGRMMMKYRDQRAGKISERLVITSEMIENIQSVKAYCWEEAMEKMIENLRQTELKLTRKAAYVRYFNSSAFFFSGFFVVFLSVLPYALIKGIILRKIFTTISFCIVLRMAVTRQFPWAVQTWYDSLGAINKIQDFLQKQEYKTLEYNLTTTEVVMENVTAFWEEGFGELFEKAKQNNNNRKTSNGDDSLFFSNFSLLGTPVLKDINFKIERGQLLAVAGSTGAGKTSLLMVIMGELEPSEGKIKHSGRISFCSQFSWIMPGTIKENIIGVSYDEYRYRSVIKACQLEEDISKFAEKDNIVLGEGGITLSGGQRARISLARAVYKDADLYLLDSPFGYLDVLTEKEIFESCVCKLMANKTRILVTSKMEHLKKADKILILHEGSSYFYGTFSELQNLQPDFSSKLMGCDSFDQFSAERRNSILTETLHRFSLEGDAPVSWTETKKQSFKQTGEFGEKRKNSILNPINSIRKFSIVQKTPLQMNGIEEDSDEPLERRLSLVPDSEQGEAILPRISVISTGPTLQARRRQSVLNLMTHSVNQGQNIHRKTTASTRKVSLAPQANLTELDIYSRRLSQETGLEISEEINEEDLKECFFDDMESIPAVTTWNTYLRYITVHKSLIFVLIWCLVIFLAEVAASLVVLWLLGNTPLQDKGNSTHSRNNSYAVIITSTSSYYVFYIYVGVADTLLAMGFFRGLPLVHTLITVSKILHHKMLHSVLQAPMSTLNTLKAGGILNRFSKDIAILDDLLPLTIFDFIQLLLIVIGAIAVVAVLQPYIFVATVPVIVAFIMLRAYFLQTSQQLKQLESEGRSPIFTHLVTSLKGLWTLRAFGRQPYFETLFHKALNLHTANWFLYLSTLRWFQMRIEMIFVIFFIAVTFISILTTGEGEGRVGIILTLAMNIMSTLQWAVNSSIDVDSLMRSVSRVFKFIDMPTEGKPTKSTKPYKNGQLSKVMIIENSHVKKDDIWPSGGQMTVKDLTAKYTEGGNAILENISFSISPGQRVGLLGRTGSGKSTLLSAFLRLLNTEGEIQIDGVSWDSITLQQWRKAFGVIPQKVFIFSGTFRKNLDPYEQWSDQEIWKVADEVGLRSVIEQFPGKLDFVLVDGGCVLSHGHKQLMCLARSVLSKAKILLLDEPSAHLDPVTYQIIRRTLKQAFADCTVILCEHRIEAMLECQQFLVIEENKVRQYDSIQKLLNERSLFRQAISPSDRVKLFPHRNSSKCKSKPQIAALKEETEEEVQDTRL

| SMILES | % Activation (ΔF508-CFTR [1]) [%] | EC50 (ΔF508-CFTR [1]) [nM] | % Activation (ΔF508-CFTR [2]; [3]) [%] | EC50 (ΔF508-CFTR [2]; [3]) [nM] | % Activation (ΔF508-CFTR [2]; [4]) [%] | EC50 (ΔF508-CFTR [2]; [5]) [nM] | % Activation (ΔF508-CFTR [2]; HRP-tagged ΔF508-CFTR CFBE cells, compound alone (intrinsic corrector capacity), 20 hours at 33° C.) [%] |
| --- | --- | --- | --- | --- | --- | --- | --- |
| CC(C)Oc1nn(C2CCCCC2)c2nc(C(=O)O)cc(-c3ccc(N4CCN(C)CC4)cc3)c12 [compound 883, 1-cyclohexyl-4-[4-(4-methylpiperazin-1-yl)phenyl]-3-[(propan-2-yl)oxy]-1H-pyrazolo[3,4-b]pyridine-6-carboxylic acid] | 380.9 | 238 | 160.6 | 330 |  |  |  |
| COCC1CCN(c2cc(C(=O)O)nc3c2c(C2CCC2)nn3-c2ccnc(C3CCOCC3)c2)CC1 [compound 817, 3-cyclobutyl-4-[4-(methoxymethyl)piperidin-1-yl]-1-[2-(oxan-4-yl)pyridin-4-yl]-1H-pyrazolo[3,4-b]pyridine-6-carboxylic acid] | 384.9 | 46.4 | 168 | 152 |  |  |  |
| CC(C)c1nn(-c2ccnc(Cl)c2)c2nc(C(=O)O)cc(-c3ccc(N4CCOCC4)cc3)c12 [compound 41, 1-(2-chloropyridin-4-yl)-4-[4-(morpholin-4-yl)phenyl]-3-(propan-2-yl)-1H-pyrazolo[3,4-b]pyridine-6-carboxylic acid] | 301.2 | 527 |  |  | 110.52 | 957 |  |
| O=C(O)c1cc(N2CC3(CCCCO3)C2)c2c(C3CCC3)nn(-c3ccccc3)c2n1 [compound 424, 3-cyclobutyl-4-(5-oxa-2-azaspiro[3.5]nonan-2-yl)-1-phenyl-1H-pyrazolo[3,4-b]pyridine-6-carboxylic acid] | 254.9 | 829 | 86.32 | 1080 |  |  |  |
| COC1CCN(C2CCN(c3cc(C(=O)O)nc4c3c(O)nn4-c3ccc(F)cc3)CC2)CC1 [compound 925, 1-(4-fluorophenyl)-3-hydroxy-4-(4-methoxy[1,4′-bipiperidin]-1′-yl)-1H-pyrazolo[3,4-b]pyridine-6-carboxylic acid] | 126.05 |  |  |  |  |  | 11.745 |
| O=C(O)c1cc(N2CCC(CN3CC[C@@H](F)C3)CC2)c2c(C3CCC3)nn(-c3ccccc3)c2n1 [compound 832, 3-cyclobutyl-4-(4-{[(3R)-3-fluoropyrrolidin-1-yl]methyl}piperidin-1-yl)-1-phenyl-1H-pyrazolo[3,4-b]pyridine-6-carboxylic acid] | 526.6 | 1070 | 250.5 | 151 |  |  |  |
| CN(C)CCOCCOc1cc(C(=O)O)nc2c1c(C1CCC1)nn2-c1ccccc1 [compound 614, 3-cyclobutyl-4-{2-[2-(dimethylamino)ethoxy]ethoxy}-1-phenyl-1H-pyrazolo[3,4-b]pyridine-6-carboxylic acid] | 176.9 | 3330 | 32.02 | 3330 |  |  |  |
| COc1ccc(-c2cc(C(=O)O)nc3c2c(C)nn3C2CCCCC2)cc1 [compound 2, 1-cyclohexyl-4-(4-methoxyphenyl)-3-methyl-1H-pyrazolo[3,4-b]pyridine-6-carboxylic acid] | 198.6 | 2970 |  |  | 49.03 | 2650 |  |
| CO[C@@H]1CCN(c2cc(C(=O)O)nc3c2c(C)nn3-c2ccccc2)C1 [compound 295, 4-[(3R)-3-methoxypyrrolidin-1-yl]-3-methyl-1-phenyl-1H-pyrazolo[3,4-b]pyridine-6-carboxylic acid] | 172.1 | 2510 |  |  | 46.475 | 2510 |  |
| O=C(O)c1cc(N2CCC3C(CCN3C3CCC3)C2)c2c(C3CCC3)nn(-c3ccc(F)cc3)c2n1 (stereo not drawn) [compound 901, 3-cyclobutyl-4-(1-cyclobutyloctahydro-5H-pyrrolo[3,2-c]pyridin-5-yl)-1-(4-fluorophenyl)-1H-pyrazolo[3,4-b]pyridine-6-carboxylic acid] | 432.3 | 151 | 199.2 | 87.6 |  |  |  |
| CC(C)c1nn(-c2ccc(F)cc2)c2nc(C(=O)O)cc(N3CCC(N4CCN(C)CC4)CC3)c12 [compound 753, 1-(4-fluorophenyl)-4-[4-(4-methylpiperazin-1-yl)piperidin-1-yl]-3-(propan-2-yl)-1H-pyrazolo[3,4-b]pyridine-6-carboxylic acid] | 377.6 | 301 | 215 | 1030 |  |  |  |
| COC1CCN(c2cc(C(=O)O)nc3c2c(C2CCC2)nn3-c2ccccc2)CC1 [compound 358, 3-cyclobutyl-4-(4-methoxypiperidin-1-yl)-1-phenyl-1H-pyrazolo[3,4-b]pyridine-6-carboxylic acid] | 370.47 | 206 |  |  | 205.07 | 410 |  |
| COCC1CCN(c2cc(C(=O)O)nc3c2c(C2CCC2)nn3-c2ccnc(OC)c2)CC1 [compound 678, 3-cyclobutyl-4-[4-(methoxymethyl)piperidin-1-yl]-1-(2-methoxypyridin-4-yl)-1H-pyrazolo[3,4-b]pyridine-6-carboxylic acid] | 373.3 | 91.8 | 181.5 | 230 |  |  |  |
| O=C(O)c1cc(N2CCC(N3CCC(F)C3)CC2)c2c(C3CCC3)nn(-c3ccc(F)cc3)c2n1 (stereo not drawn) [compound 846, 3-cyclobutyl-1-(4-fluorophenyl)-4-[4-(3-fluoropyrrolidin-1-yl)piperidin-1-yl]-1H-pyrazolo[3,4-b]pyridine-6-carboxylic acid] | 495.1 | 968 | 317.9 | 874 |  |  |  |
| CC1(C)CN(C2CCN(c3cc(C(=O)O)nc4c3c(C3CCC3)nn4-c3ccc(F)cc3)CC2)CCO1 [compound 876, 3-cyclobutyl-4-[4-(2,2-dimethylmorpholin-4-yl)piperidin-1-yl]-1-(4-fluorophenyl)-1H-pyrazolo[3,4-b]pyridine-6-carboxylic acid] | 562.35 | 267 | 324.4 | 301 |  |  |  |
| O=C(O)c1cc(OCC2CCCC2(F)F)c2c(C3CCC3)nn(-c3ccccc3)c2n1 (stereo not drawn) [compound 486, 3-cyclobutyl-4-[(2,2-difluorocyclopentyl)methoxy]-1-phenyl-1H-pyrazolo[3,4-b]pyridine-6-carboxylic acid] | 299 | 335 | 127 | 603 |  |  |  |
| CC(C)Oc1nn(C2CCCCC2)c2nc(C(=O)O)cc(-c3ccc(N4CCN(C(C)C)CC4)cc3)c12 [compound 863, 1-cyclohexyl-3-[(propan-2-yl)oxy]-4-{4-[4-(propan-2-yl)piperazin-1-yl]phenyl}-1H-pyrazolo[3,4-b]pyridine-6-carboxylic acid] | 320.9 | 370 | 156.35 | 499 |  |  |  |
| Cc1nn(-c2ccccc2)c2nc(C(=O)O)cc(-c3ccc(N4CCN(CC#N)CC4)cc3)c12 [compound 98, 4-{4-[4-(cyanomethyl)piperazin-1-yl]phenyl}-3-methyl-1-phenyl-1H-pyrazolo[3,4-b]pyridine-6-carboxylic acid] | 350.65 | 834 |  |  | 165.8 | 1150 |  |
| O=C(O)c1cc(O[C@H]2CCOC2)c2c(C3CCC3)nn(-c3ccccc3)c2n1 [compound 583] | 287.75 | 460 | 134.7 | 1020 |  |  |  |
| CC(C)c1nn(-c2ccc(F)cc2)c2nc(C(=O)O)cc(N3CCC(O)(CN(C)C(C)C)CC3)c12 [compound 798, 1-(4-fluorophenyl)-4-(4-hydroxy-4-{[methyl(propan-2-yl)amino]methyl}piperidin-1-yl)-3-(propan-2-yl)-1H-pyrazolo[3,4-b]pyridine-6-carboxylic acid] | 186.5 | 864 | 58.3 | 1670 |  |  |  |
| Cc1nn(-c2ccccc2)c2nc(C(=O)O)cc(-c3ccc(N4CCC(O)C4)cc3)c12 (stereo not drawn) [compound 153, 4-[4-(3-hydroxypyrrolidin-1-yl)phenyl]-3-methyl-1-phenyl-1H-pyrazolo[3,4-b]pyridine-6-carboxylic acid] | 386.85 | 1200 |  |  | 198.45 | 1530 |  |
| CC(C)c1nn(-c2cccc(N3CCCC3)c2)c2nc(C(=O)O)cc(-c3cnc(N4CCC(C#N)CC4)nc3)c12 [compound 259, 4-[2-(4-cyanopiperidin-1-yl)pyrimidin-5-yl]-3-(propan-2-yl)-1-[3-(pyrrolidin-1-yl)phenyl]-1H-pyrazolo[3,4-b]pyridine-6-carboxylic acid] | 673.9 | 1010 |  |  | 438.95 | 1130 |  |
| O=C(O)c1cc(N2CCOC(CN3CCCCC3)C2)c2c(C3CCC3)nn(-c3ccccc3)c2n1 (stereo not drawn) [compound 556, 3-cyclobutyl-1-phenyl-4-{2-[(piperidin-1-yl)methyl]morpholin-4-yl}-1H-pyrazolo[3,4-b]pyridine-6-carboxylic acid] | 324 | 682 | 140.1 | 838 |  |  |  |

From patent US9796711B2, “Substituted pyrazolo[3,4-b]pyridin-6-carboxylic acids and method of use” (AbbVie S.àr.l., priority 2015, dated 2017)
